Values of other authors in US11747352B2 (Concordia University, Inc., priority 2017, dated 2023).
Like-named read-outs stand apart in the source and are kept apart here.

Experiments:
[1] = cited from earlier work
[2] = cited from earlier work; remark: listed apart in the source

COc1ccc2[nH]cc(CCNC(C)=O)c2c1 [Melatonin]
HALF LIFE ([1]; Table CYP1A2): 0.583 to 0.833 h

Cc1cc2c(s1)Nc1ccccc1N=C2N1CCN(C)CC1 [Olanzapine]
HALF LIFE ([1]; Table CYP1A2): 21 to 54 h

COc1ccc2c(c1)[C@]13CCCC[C@@H]1[C@H](C2)N(C)CC3 [Dextromethorphan]
HALF LIFE ([1]; in vivo): 1.4 to 3.9 h

CC[C@H]1OC(=O)[C@H](C)[C@@H](O[C@H]2C[C@@](C)(OC)[C@@H](O)[C@H](C)O2)[C@H](C)[C@@H](O[C@@H]2O[C@H](C)C[C@H](N(C)C)[C@H]2O)[C@](C)(O)C[C@@H](C)C(=O)[C@H](C)[C@@H](O)[C@]1(C)O [Erythromycin]
ORAL BIOAVAILABILITY ([2]; Table CYP3A4): 30-65% ^

CCC1=C(C)CN(C(=O)NCCc2ccc(S(=O)(=O)NC(=O)N[C@H]3CC[C@H](C)CC3)cc2)C1=O [Glimepiride]
HALF LIFE ([1]; Table CYP2C9): 5 to 9.2 h

CC(=O)O[C@H]1C(=O)[C@@]2(C)[C@H]([C@H](OC(=O)c3ccccc3)[C@]3(O)C[C@H](OC(=O)[C@H](O)[C@@H](NC(=O)c4ccccc4)c4ccccc4)C(C)=C1C3(C)C)[C@]1(OC(C)=O)CO[C@@H]1C[C@@H]2O [Paclitaxel]
HALF-LIFE ([1]; Table CYP3A4): 13.1 to 57.7 h

CC(C)C[C@H]1C(=O)N2CCC[C@H]2[C@]2(O)O[C@](NC(=O)[C@@H]3C=C4c5cccc6[nH]c(Br)c(c56)C[C@H]4N(C)C3)(C(C)C)C(=O)N12 [Bromocriptine]
ORAL BIOAVAILABILITY ([2]; Table CYP3A4): 65-95% ^

Cc1nc2n(c(=O)c1CCN1CCC(c3noc4cc(F)ccc34)CC1)CCCC2 [Risperidone]
HALF LIFE ([1]; Table CYP2D6): 3 to 20 h

CCC1(c2ccccc2)C(=O)NC(=O)N(C)C1=O (stereo not drawn) [Methylphenobarbital]
HALF-LIFE ([1]; in vivo): 11 to 67 h

CCN[C@@H](C)Cc1cccc(C(F)(F)F)c1 [Dexfenfluramine]
HALF LIFE ([1]; in vivo): 17 to 20 h

CCCCNC(=O)NS(=O)(=O)c1ccc(C)cc1 [Tolbutamide]
HALF LIFE ([1]; Table CYP2C9): 4.5 to 6.5 h

CC(C(=O)O)c1ccc(C(=O)c2cccs2)cc1 (stereo not drawn) [Suprofen]
HALF LIFE ([1]; Table CYP2C9): 2 to 4 h

CN(C)CCCN1c2ccccc2CCc2ccccc21 [Imipramine]
ORAL BIOAVAILABILITY ([2]; Table CYP2D6): 94-96% ^

CC[C@@H](c1cccc(O)c1)[C@@H](C)CN(C)C [Tapentadol]
HALF LIFE ([1]; Table CYP2C9): 4 to 5 h
HALF LIFE ([1]; Table CYP2D6): 4 to 5 h

COc1ccc2c(c1)N(C[C@H](C)CN(C)C)c1ccccc1S2 [Levomepromazine]
ORAL BIOAVAILABILITY ([2]; Table CYP2D6): 50-60% ^

CCOc1cc(CC(=O)N[C@@H](CC(C)C)c2ccccc2N2CCCCC2)ccc1C(=O)O [Repaglinide]
ORAL BIOAVAILABILITY ([2]; Table CYP3A4): 55%

O=C(O)Cc1ccccc1Nc1c(Cl)cccc1Cl [Diclofenac]
HALF LIFE ([1]; Table CYP2C9): 1.9 to 2.2 h

CC/C(=C(\c1ccccc1)c1ccc(OCCN(C)C)cc1)c1ccccc1 [Tamoxifen]
HALF LIFE ([1]; Table CYP1A2): ~120 to 170 h
HALF LIFE ([1]; Table CYP2C9): 120 to 170 h
HALF LIFE ([1]; Table CYP2D6): 120 to 170 h

Cn1c(=O)c2[nH]cnc2n(C)c1=O [Theophylline]
HALF LIFE ([1]; Table CYP1A2): 1.5 to 9.8 h

CNCC[C@H](Oc1cccc2ccccc12)c1cccs1 [Duloxetine]
ORAL BIOAVAILABILITY ([2]; Table CYP2D6): 30-80% ^

Fc1ccccc1C1=NCC(=S)N(CC(F)(F)F)c2ccc(Cl)cc21 [Quazepam]
ORAL BIOAVAILABILITY ([2]; Table CYP3A4): 29-35% ^

CSc1ccc2c(c1)N(CCC1CCCCN1C)c1ccccc1S2 (stereo not drawn) [Thioridazine]
HALF LIFE ([1]; Table CYP2D6): 21 to 24 h

Cc1cccc(Nc2ccncc2S(=O)(=O)NC(=O)NC(C)C)c1 [Torasemide]
HALF LIFE ([1]; Table CYP2C9): 2.2 to 3.8 h

CC(CN1c2ccccc2Sc2ccccc21)N(C)C (stereo not drawn) [Promethazine]
HALF LIFE ([1]; Table CYP2D6): 16 to 19 h

COc1ccc2c3c1O[C@H]1C(=O)CC[C@@]4(O)[C@@H](C2)N(C)CC[C@]314 [Oxycodone]
ORAL BIOAVAILABILITY ([2]; Table CYP2D6): 60-87% ^
ORAL BIOAVAILABILITY ([2]; Table CYP3A4): 60-87% ^

COCCc1ccc(OCC(O)CNC(C)C)cc1 (stereo not drawn) [Metoprolol]
HALF LIFE ([1]; Table CYP2D6): 3 to 7 h

COc1ccc2c3c1O[C@H]1[C@@H](O)C=C[C@H]4[C@@H](C2)N(C)CC[C@@]341 [Codeine]
HALF LIFE ([1]; in vivo): 2.5 to 3 h

COc1ccc2cccc(CCNC(C)=O)c2c1 [Agomelatine]
HALF LIFE ([1]; Table CYP1A2): 1 to 2 h

CC(N)Cc1ccccc1 (stereo not drawn) [Amphetamine]
ORAL BIOAVAILABILITY ([2]; in vivo, po): 100%

Cc1cc(-c2ccccc2)nnc1NCCN1CCOCC1 [Minaprine]
HALF LIFE ([1]; Table CYP2D6): 2 to 2.5 h

COc1cc(C(C)=O)ccc1OCCCN1CCC(c2noc3cc(F)ccc23)CC1 [Iloperidone]
HALF LIFE ([1]; Table CYP2D6): 18 to 33 h

CN1CCN(C2=Nc3cc(Cl)ccc3Nc3ccccc32)CC1 [Clozapine]
HALF LIFE ([1]; Table CYP1A2): 4 to 66 h

CN(CCOc1ccc(CC2SC(=O)NC2=O)cc1)c1ccccn1 (stereo not drawn) [Rosiglitazone]
HALF LIFE ([1]; Table CYP2C9): 3 to 4 h

O=C(NCC1CCCCN1)c1cc(OCC(F)(F)F)ccc1OCC(F)(F)F (stereo not drawn) [Flecainide]
ORAL BIOAVAILABILITY ([2]; Table CYP2D6): 70-95% ^

Cc1nccn1CC1CCc2c(c3ccccc3n2C)C1=O (stereo not drawn) [Ondansetron]
HALF LIFE ([1]; Table CYP1A2): 3 to 6 h
HALF LIFE ([1]; Table CYP2D6): 3 to 6.2 h

CO[C@H]1C[C@@H]2CC[C@@H](C)[C@@](O)(O2)C(=O)C(=O)N2CCCC[C@H]2C(=O)O[C@H]([C@H](C)C[C@@H]2CC[C@@H](O)[C@H](OC)C2)CC(=O)[C@H](C)/C=C(\C)[C@@H](O)[C@@H](OC)C(=O)[C@H](C)C[C@H](C)/C=C/C=C/C=C/1C [Sirolimus]
ORAL BIOAVAILABILITY ([2]; Table CYP3A4): 14-27% ^

O=C(CCCN1CCC(O)(c2ccc(Cl)cc2)CC1)c1ccc(F)cc1 [Haloperidol]
HALF LIFE ([1]; Table CYP1A2): 14 to 37 h
HALF LIFE ([1]; Table CYP2D6): 14 to 37 h

C#C[C@]1(O)CC[C@H]2[C@@H]3CCc4cc(O)ccc4[C@H]3CC[C@@]21C [Ethinyl Estradiol]
ORAL BIOAVAILABILITY ([2]; Table CYP3A4): 38-48% ^

C[C@@H](O[C@H]1OCCN(Cc2n[nH]c(=O)[nH]2)[C@H]1c1ccc(F)cc1)c1cc(C(F)(F)F)cc(C(F)(F)F)c1 [Aprepitant]
ORAL BIOAVAILABILITY ([2]; Table CYP3A4): 60-65% ^

CCN(CC)CCNC(=O)c1cc(Cl)c(N)cc1OC [Metoclopramide]
HALF LIFE ([1]; Table CYP2D6): 5 to 6 h

CN(C)CCC=C1c2ccccc2C=Cc2ccccc21 [Cyclobenzaprine]
HALF LIFE ([1]; Table CYP1A2): 8 to 37 h

Cc1ccnc2c1NC(=O)c1cccnc1N2C1CC1 [Nevirapine]
ORAL BIOAVAILABILITY ([2]; Table CYP3A4): 80-94% ^

CCCC1O[C@@H]2C[C@H]3[C@@H]4CCC5=CC(=O)C=C[C@]5(C)[C@H]4[C@@H](O)C[C@]3(C)[C@]2(C(=O)CO)O1 (stereo partly drawn) [Budesonide]
ORAL BIOAVAILABILITY ([2]; Table CYP3A4): 9-21%^

COc1cc(N)c(Cl)cc1C(=O)NC1CCN(CCCOc2ccc(F)cc2)CC1OC (stereo not drawn) [Cisapride]
ORAL BIOAVAILABILITY ([2]; Table CYP3A4): 35-65% ^

CN(C/C=C/C#CC(C)(C)C)Cc1cccc2ccccc12 [Terbinafine]
HALF LIFE ([1]; Table CYP2C9): 22 to 26 h

CN(C)C[C@H]1CCCC[C@]1(O)c1cccc(O)c1 [O-desmethyltramadol]
HALF LIFE ([1]; Table CYP2D6): 9 h

C1CCC(C(CC2CCCCN2)C2CCCCC2)CC1 (stereo not drawn) [Perhexiline]
HALF LIFE ([1]; Table CYP2D6): 12 to 18 h

CC(=O)Nc1ccc(O)cc1 [Paracetamol]
HALF LIFE ([1]; Table CYP1A2): 1 to 4 h

CN[C@@H](C)Cc1ccccc1 [Dextromethamphetamine]
HALF LIFE ([1]; Table CYP2D6): 12 h

COCCCC/C(=N\OCCN)c1ccc(C(F)(F)F)cc1 [Fluvoxamine]
HALF LIFE ([1]; Table CYP1A2): ~14 to 16 h

COC(=O)N[C@H](C(=O)N[C@@H](Cc1ccccc1)[C@@H](O)CN(Cc1ccc(-c2ccccn2)cc1)NC(=O)[C@@H](NC(=O)OC)C(C)(C)C)C(C)(C)C [Atazanavir]
ORAL BIOAVAILABILITY ([2]; Table CYP3A4): 60-68% ^

CN1[C@@H]2CC[C@H]1C[C@@H](OC(=O)c1c[nH]c3ccccc13)C2 [Tropisetron]
HALF LIFE ([1]; Table CYP2D6): 5.6 to 8.6 h

CCCc1nc(C)c2c(=O)[nH]c(-c3cc(S(=O)(=O)N4CCN(CC)CC4)ccc3OCC)nn12 [Vardenafil]
ORAL BIOAVAILABILITY ([2]; Table CYP3A4): 15-44% ^

COc1cccc(C2(O)CCCCC2CN(C)C)c1 (stereo not drawn) [Tramadol]
HALF LIFE ([1]; in vivo): 5.5 to 6.7 h

Nc1c2c(nc3ccccc13)CCCC2 [Tacrine]
HALF LIFE ([1]; in vivo): 2 to 4 h

COC(=O)C1=C(C)NC(C)=C(C(=O)OC(C)C)C1c1cccc2nonc12 (stereo not drawn) [Isradipine]
ORAL BIOAVAILABILITY ([2]; Table CYP3A4, CR): CR: 15-24% ^
ORAL BIOAVAILABILITY ([2]; Table CYP3A4, IR): IR: 90-95% ^

C=CCc1ccccc1OCC(O)CNC(C)C (stereo not drawn) [Alprenolol]
HALF LIFE ([1]; Table CYP2D6): 2 to 3 h

CN1CCN2c3ccccc3Cc3ccccc3C2C1 (stereo not drawn) [Mianserin]
ORAL BIOAVAILABILITY ([2]; Table CYP2D6): 20-30% ^

Fc1ccc([C@@H]2CCNC[C@H]2COc2ccc3c(c2)OCO3)cc1 [Paroxetine]
HALF LIFE ([1]; Table CYP2D6): 15 to 21 h

CN(C)CCc1c[nH]c2ccc(C[C@H]3COC(=O)N3)cc12 [Zolmirripran]
ORAL BIOAVAILABILITY ([2]; Table of Exemplary Drugs, CYP1A2): ~40%

COc1ccc2c3c1O[C@H]1C(=O)CC[C@H]4[C@@H](C2)N(C)CC[C@]314 [Hydrocodone]
HALF LIFE ([1]; in vivo): 7 to 9 h

O=C1Nc2ccc(Cl)cc2[C@@](C#CC2CC2)(C(F)(F)F)O1 [Efavirenz]
ORAL BIOAVAILABILITY ([2]; Table CYP3A4): 40-45% ^

OCCN1CCN(CCCN2c3ccccc3Sc3ccc(Cl)cc32)CC1 [Perphenazine]
HALF LIFE ([1]; Table CYP2D6): 9 to 12 h

C=C[C@H]1C[N@@]2CC[C@H]1C[C@H]2[C@H](O)c1ccnc2ccc(OC)cc12 [Quinine]
ORAL BIOAVAILABILITY ([2]; Table CYP3A4): 76-88% ^

CCOC(=O)C1=C(C)NC(C)=C(C(=O)OC)C1c1cccc(Cl)c1Cl (stereo not drawn) [Felodipine]
ORAL BIOAVAILABILITY ([2]; Table CYP3A4): 13-20% ^

CCOC(=O)C1=C(COCCN)NC(C)=C(C(=O)OC)C1c1ccccc1Cl (stereo not drawn) [Amlodipine]
ORAL BIOAVAILABILITY ([2]; Table CYP3A4): 64-90% ^

CCN1CCC[C@H]1CNC(=O)c1c(OC)ccc(Br)c1OC [Remoxipride]
HALF LIFE ([1]; Table CYP2D6): 3 to 6 h

CC(c1cc2ccccc2s1)N(O)C(N)=O (stereo not drawn) [Zileuton]
HALF LIFE ([1]; Table CYP1A2): 2.5 to 3.2 h
